The results in this text go back to ChEMBL document CHEMBL1201862, “PubChem BioAssay data set” (2004).

Calls of active or inactive are those of the source. Some results are limits rather than exact numbers.

Test [1] deals with Serine hydrolase RBBP9 (Homo sapiens, UniProt O75884). The experiment in a line: RBBP9 hydrolase inhibition, IC50 by ABPP – biochemical, gel-based ABPP, late-stage follow-up, panel member Panel member description: RBBP9 IC50 Gel-based ABPP Assay (AID 2254).
Test [2] relates to HEK293. The experiment in a line: TNF Induced NF-kB Luciferase in 293-NF-kB-Luc Stable Cells. [Related pubchem assays: 1266, 1299, 1269, 1373, 1292, 1290, 1302, 1371, 1283, 1270, 1295, 1271, 1375, 1294, 1374, 1281, 1293, 1291, 1289, 1280, 465, 1368, 1364, 1282, 1372, 1365, 1369, 1370, 1367, 1366 ]. The test is classed as functional, cell-based. As to conditions: Homo sapiens.

The subject of test [3] is HEK293. The experiment in a line: Cytotoxicity assay in HEK293 cells. [Related pubchem assays (depositor defined):AID1266, AID1269, AID1270, AID1271, AID1280, AID1281, AID1282, AID1283, AID1287, AID1289, AID1290, AID1291, AID1292, AID1293, AID1294, AID1295, AID1299, AID1302, AID1364, AID1365, AID1366, AID1367, AID1369, AID1370, AID1371, AID1372, AID1373, AID1374, AID1375, AID1384 …. The test is classed as functional, cell-based. As to conditions: Homo sapiens.

Test [4] concerns the target Luciferin 4-monooxygenase (Photinus pyralis, UniProt P08659). The experiment in a line: In vitro luciferase assay using purified luciferase. [Related pubchem assays: 1299, 1270, 1295, 1375, 1287, 1281, 1293, 1291, 1289, 1280, 465, 1364, 1282, 1372, 1365, 1370, 1367, 1366, 1266, 1373, 1292, 1290, 1302, 1371, 1283, 1271, 1294, 1374, 1368, 1369 ].
The test system of test [5] is HEK293. The experiment in a line: PMA/Ionomycin induced NF-kB luciferase assay in 293- NF-kB-Luc stable cells. [Related pubchem assays: 1299, 1270, 1295, 1375, 1287, 1281, 1293, 1291, 1289, 1280, 465, 1364, 1282, 1372, 1365, 1370, 1367, 1366, 1269, 1373, 1292, 1290, 1302, 1371, 1283, 1271, 1294, 1374, 1368, 1369 ]. The test is classed as functional, cell-based. Conditions: Homo sapiens.

For test [6], the target named is Lysosomal acid glucosylceramidase (Homo sapiens, UniProt P04062). Nature of the test: Dose response cell-based high throughput screening assay to identify enhancers of beta-glucosidase activity. [Related pubchem assays: 784 ]. Type of test: functional.
Sequence of Lysosomal acid glucosylceramidase (P04062 whole entry): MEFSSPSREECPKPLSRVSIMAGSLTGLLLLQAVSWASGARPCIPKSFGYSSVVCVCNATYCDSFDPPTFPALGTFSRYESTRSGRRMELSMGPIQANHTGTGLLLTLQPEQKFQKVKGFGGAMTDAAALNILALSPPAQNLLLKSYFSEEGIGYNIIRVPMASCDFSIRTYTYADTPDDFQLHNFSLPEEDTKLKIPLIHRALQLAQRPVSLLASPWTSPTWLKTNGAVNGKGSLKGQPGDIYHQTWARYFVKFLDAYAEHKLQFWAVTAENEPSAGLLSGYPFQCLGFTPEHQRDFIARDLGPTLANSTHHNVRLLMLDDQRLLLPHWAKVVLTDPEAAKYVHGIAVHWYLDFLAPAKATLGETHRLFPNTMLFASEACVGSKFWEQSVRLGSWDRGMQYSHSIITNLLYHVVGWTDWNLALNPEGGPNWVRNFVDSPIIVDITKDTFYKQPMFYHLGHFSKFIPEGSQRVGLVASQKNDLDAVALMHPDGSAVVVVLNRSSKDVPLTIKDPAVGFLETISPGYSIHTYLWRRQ
Test [7] addresses T1, Eukaryotic translation initiation factor 2-alpha kinase 3 (Homo sapiens, UniProt Q9NZJ5). The experiment in a line: Dose response cell-based high-throughput screening assay to measure PERK inhibition. [Related pubchem assays: 1416 ]. The test is classed as functional.
The target in test [8] is T1, Eukaryotic translation initiation factor 2-alpha kinase 3. Nature of the test: Counterscreen assay for PERK inhibitors: Dose response cell-based high throughput screening assay to measure inhibition of PERK at 6 hours. [Related pubchem assays: 1522, 1416 ]. Type of test: functional.
Test [9] is described as follows: viability of HCT116 lacking mutant beta-catenin – cell-based, human colon tumor, dose response (AID 1045).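 Further: HCT116 colon tumor cells with beta catenin knocked out; cells exposed to compound for 60 hours.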 Type of test: functional.
Test [10] can be described thus: viability of PTEN-deleted HCT116 cells – cell-based, HCT116 PTEN knockout, dose response (AID 1047).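 Further: HCT116 colon tumor cells with PTEN knocked out; cells exposed to compound for 60 hours before readout; potency for loss of cell viability measured by luminescence.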 The test is classed as functional.
Test [11] has as its target X-box-binding protein 1 (Homo sapiens, UniProt P17861). Type of test: functional, Cricetulus griseus.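 Further: confirmatory dose-response counter-screen serving a CHOP assay.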
For test [12], the target named is Photoreceptor-specific nuclear receptor (Homo sapiens, UniProt Q9Y5X4). Type of test: functional.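 Further: potency for compounds that break the NR2E3 corepressor complex and count as activators.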
Sequence of Photoreceptor-specific nuclear receptor (Q9Y5X4 whole entry): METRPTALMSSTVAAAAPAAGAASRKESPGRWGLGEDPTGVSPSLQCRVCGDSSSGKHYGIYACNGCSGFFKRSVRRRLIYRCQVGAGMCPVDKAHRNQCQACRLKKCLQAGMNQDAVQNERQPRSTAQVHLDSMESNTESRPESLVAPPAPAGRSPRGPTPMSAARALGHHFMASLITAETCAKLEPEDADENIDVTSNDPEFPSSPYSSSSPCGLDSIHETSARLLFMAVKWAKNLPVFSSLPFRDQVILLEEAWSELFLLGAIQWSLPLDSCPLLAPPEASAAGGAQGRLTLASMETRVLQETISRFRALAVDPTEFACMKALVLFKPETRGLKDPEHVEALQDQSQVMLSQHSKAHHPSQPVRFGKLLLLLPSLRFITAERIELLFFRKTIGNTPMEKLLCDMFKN
Test [13] deals with Peroxisome proliferator-activated receptor gamma/Nuclear receptor corepressor 2 (Homo sapiens, UniProt P37231+Q9Y618). The test is classed as functional.
Test [14] addresses T2, CAAX prenyl protease 2 (Saccharomyces cerevisiae S288c, UniProt Q03530).
T2 sequence (Q03530 whole entry): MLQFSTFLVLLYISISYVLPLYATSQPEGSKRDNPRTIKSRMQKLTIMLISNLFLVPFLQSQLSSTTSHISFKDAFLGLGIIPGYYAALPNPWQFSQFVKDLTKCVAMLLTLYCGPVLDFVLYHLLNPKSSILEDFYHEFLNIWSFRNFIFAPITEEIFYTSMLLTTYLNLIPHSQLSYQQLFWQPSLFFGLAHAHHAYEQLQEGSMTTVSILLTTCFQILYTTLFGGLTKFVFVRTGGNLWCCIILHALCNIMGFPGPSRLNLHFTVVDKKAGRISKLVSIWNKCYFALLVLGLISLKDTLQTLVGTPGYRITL
Type of test: biochemical.

Test [15] addresses Trypsin (Sus scrofa, UniProt P00761). The experiment in a line: trypsin protease activity blockade – biochemical, quenched peptide fluorescence, cherry-pick, selectivity assay for Rce1 protease inhibitor project, dose response (AID 488789).
In test [16] the target is T3, Protein phosphatase methylesterase 1 (Homo sapiens, UniProt Q9Y570). Nature of the test: endogenous PME-1 and serine hydrolase inhibition – cell lysate, mouse brain cytosol, FP-rhodamine, gel ABPP, selectivity assay for PME-1 inhibitor project, dose response, panel member PME-1 Assay Panel member description: Inhibition of endogenously expressed PME-1 (AID 2366).
T3 sequence (Q9Y570 whole entry): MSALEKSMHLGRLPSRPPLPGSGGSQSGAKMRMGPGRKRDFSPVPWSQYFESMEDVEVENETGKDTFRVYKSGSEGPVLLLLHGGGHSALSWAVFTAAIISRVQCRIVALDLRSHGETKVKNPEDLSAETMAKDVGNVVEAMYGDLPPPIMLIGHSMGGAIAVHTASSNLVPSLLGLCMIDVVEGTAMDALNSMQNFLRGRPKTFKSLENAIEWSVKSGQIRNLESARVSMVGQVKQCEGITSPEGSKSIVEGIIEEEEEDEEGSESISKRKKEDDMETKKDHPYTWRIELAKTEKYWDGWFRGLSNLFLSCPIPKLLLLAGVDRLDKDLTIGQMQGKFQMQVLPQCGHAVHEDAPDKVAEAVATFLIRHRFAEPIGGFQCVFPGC
For test [17], the target named is T3, Protein phosphatase methylesterase 1. Nature of the test: Late stage results from the probe development effort to identify inhibitors of the protein methylesterase PME-1: Gel-based Activity-Based Protein Profiling (ABPP) IC50: Purified enzyme. The test is classed as functional.

T1 sequence (Q9NZJ5 whole entry): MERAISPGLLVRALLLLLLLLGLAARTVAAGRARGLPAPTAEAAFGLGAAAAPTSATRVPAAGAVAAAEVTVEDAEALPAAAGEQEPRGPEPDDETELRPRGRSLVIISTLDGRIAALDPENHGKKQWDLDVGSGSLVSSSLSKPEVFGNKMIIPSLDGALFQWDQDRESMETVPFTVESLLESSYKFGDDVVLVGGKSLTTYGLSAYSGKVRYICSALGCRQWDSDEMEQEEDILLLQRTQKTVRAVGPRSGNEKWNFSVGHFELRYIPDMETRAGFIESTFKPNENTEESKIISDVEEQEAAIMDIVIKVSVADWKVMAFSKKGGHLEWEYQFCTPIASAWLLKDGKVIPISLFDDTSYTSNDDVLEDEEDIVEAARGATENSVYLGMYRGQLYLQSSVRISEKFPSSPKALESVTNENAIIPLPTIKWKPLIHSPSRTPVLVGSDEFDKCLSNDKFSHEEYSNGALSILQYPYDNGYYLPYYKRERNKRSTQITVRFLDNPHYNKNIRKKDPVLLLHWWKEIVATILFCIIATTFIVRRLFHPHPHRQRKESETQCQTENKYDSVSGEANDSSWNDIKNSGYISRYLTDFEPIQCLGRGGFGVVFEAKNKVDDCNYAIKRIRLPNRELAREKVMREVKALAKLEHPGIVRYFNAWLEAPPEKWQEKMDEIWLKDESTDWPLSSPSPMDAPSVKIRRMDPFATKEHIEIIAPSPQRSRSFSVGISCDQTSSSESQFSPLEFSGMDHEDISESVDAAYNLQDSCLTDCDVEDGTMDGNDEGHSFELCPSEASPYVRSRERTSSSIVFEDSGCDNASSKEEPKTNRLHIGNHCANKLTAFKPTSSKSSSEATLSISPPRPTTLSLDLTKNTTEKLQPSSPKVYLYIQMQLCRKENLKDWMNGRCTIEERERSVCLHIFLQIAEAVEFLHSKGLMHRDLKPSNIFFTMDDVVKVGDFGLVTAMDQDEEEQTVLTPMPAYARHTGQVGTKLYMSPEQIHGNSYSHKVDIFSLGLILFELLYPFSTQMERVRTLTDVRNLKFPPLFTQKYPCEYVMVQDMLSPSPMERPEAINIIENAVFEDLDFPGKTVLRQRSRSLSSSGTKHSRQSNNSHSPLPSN
Sequence of X-box-binding protein 1 (P17861 whole entry): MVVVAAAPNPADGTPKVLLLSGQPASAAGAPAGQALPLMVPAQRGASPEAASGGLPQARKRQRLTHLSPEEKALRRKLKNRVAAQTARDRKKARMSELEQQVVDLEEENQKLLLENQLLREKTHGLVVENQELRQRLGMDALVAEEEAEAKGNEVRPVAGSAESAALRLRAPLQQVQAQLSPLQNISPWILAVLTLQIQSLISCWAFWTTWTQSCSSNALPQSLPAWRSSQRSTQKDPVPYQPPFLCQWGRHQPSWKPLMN
Sequence of Luciferin 4-monooxygenase (P08659 whole entry): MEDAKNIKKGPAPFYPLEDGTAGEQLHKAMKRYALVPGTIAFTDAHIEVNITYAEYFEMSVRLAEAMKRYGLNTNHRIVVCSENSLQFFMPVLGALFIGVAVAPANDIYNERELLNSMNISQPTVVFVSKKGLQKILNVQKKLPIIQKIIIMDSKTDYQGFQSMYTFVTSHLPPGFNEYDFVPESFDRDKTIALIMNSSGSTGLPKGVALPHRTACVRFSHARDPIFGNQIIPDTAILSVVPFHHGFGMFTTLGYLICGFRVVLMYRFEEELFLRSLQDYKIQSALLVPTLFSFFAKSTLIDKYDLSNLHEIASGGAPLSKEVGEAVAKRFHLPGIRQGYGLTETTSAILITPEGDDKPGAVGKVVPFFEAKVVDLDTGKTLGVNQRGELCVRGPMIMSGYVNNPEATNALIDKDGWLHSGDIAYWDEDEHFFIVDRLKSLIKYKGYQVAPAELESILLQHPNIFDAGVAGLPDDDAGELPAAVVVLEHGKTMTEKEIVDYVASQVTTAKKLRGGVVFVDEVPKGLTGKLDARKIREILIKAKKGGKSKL
Sequence of Serine hydrolase RBBP9 (O75884 whole entry): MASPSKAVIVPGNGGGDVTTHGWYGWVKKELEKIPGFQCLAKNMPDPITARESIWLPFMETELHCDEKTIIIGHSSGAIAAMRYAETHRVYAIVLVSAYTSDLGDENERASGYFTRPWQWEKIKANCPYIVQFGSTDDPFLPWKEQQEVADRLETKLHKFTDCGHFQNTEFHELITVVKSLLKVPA
Sequence of Trypsin (P00761 whole entry): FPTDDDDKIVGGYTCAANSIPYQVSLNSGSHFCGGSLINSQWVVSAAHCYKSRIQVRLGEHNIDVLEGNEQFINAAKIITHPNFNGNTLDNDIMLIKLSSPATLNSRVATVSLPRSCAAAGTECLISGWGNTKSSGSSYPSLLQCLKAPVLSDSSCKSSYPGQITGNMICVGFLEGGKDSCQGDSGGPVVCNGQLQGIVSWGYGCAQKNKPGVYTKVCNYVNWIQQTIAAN

For `C/C(=N\OC(=O)c1ccccc1)c1nccs1`, the IC50 in test [1] was 5 µM (active).
`COc1ccc2ccccc2c1C(=O)/C=C/c1cccnc1`: the EC50 in test [2] was 3.5 µM (active); in [3], 8.48 µM (inactive); in test [4], > 8 µM (not active); in test [5], 0.644 µM (active).
For `Cc1cc(C)nc(Sc2nc(C)nc3c2oc2ccccc23)n1`, the EC50 in [6] is > 50 µM (not active).
For the compound `COc1ccccc1NC(=O)CSc1nnc(CCC(=O)Nc2ccccc2F)n1C`, the EC50 in test [7] and in test [8] was > 55.7 µM (not active) in each case.
Regarding `NC(N)=C1C(=O)N(C2CCCCC2)C(=O)N(C2CCCCC2)C1=O`, the figures for the EC50 in test [9] and in test [10] were 25.5 µM (active) and 24 µM (active), respectively. Also, the “Absolute IC50 (XBP1)” value in test [11] turned out to be 10 µM.
Turning to `COC(=O)CCCCC1SCC2NC(=O)NC21O` (configuration not stated), the IC50 is 0.139 µM (active) in [12] and 0.577 µM (active) in test [13].
In the case of `O=C1c2cccc(OCC(=O)N3N=C(c4cccs4)CC3c3ccc(F)cc3)c2CCN1Cc1cccnc1` (configuration not stated), the AC50 in test [14] is 13.1 µM (active); in [15], 12.9 µM (active).
In the case of `CS(=O)(=O)/C(C#N)=C/c1ccc[nH]1`, the figures for the IC50 in [16] and in [17] were > 20 µM (inactive) and > 20 µM (not active), respectively.
